A short description of data set [1]: Antiasthmatic effect, aerosol (protection against sneezing induced by histamine aerosol in guinea-pigs). It is filed as in vivo. As to conditions: aerosol of test compound 15 sec, histamine 0.1% aerosol. The method, then:
Guinea-pigs were placed in a chamber and sprayed for 10 sec with an aerosol of histamine solution (0.1%) and onset of sneezing was recorded and animals with control time of 70-100 sec were selected. These animals were sprayed for 15 sec with an aerosol of test compounds. After 45 sec, sprayed histamine and observed for 3 min it was. […] The percent of animals protected was determined.

The nature of data set [2]: Antiasthmatic effect, oral (protection against histamine spray 30 min after oral administration in guinea-pigs). In kind it is in vivo. The settings on record: for ED50: Cavia porcellus, 0.5 h, read-out: Antiasthmatic effect, Oral (a), ED50; for b/a: ratio of diarrhea ED50 (b) to oral antiasthmatic ED50 (a). The method, then: Guinea-pigs were sprayed for 10 sec with histamine 30 min after oral administration of test compounds and observed for 3 min. The percent of aminals protected was determined.

Data set [3] in a line: Diarrhea-producing effect, oral, guinea-pigs. As to conditions: guinea pig, in vivo, 2hr to next morning, read-out: (A) Diarrhea-producing effect (b), ED50. The method, then:
II. Diaarrhea-producing effect
Test compounds were administered orally to guinea-pigs. The appearance of diarrhea (loose or watery feces) at 2hr, 3hr, 4hr, 5hr and next morning was noted.

Data set [4] in a line: Effect on air-way resistance (Konzett and Rossler; histamine-induced broncho-constriction, intraduodenal administration). The settings on record: Cavia porcellus, 0.5 h, read-out: (B) Effect on airway resistance, ED50. In kind it is in vivo, guinea-pig. The method, then: III. Effect on air-way resistance
The air-way resistance of the guinea-pig lung was determined by the method of Konzett and Rossler (Arch. exp. Path. Pharmak., 195, 71-74(1940)). The bronchorelaxing activity of prostaglandins were expressed in terms of protective effect against broncho-constriction elicited by intravenous injection of histamine (3 μg/kg). Histamine was injected 30 min after intraduodenal administration of test compound to urethane anesthetized and artificially ventilated guinea-pigs.

The mark [5] stands for this setting: guinea-pigs, oral, histamine 30 min after administration.

Usually ED50 stands for the dose at which the effect has come halfway, by size or by number of responders.

For the compound `CCCCC(C)C(O)/C=C/[C@H]1[C@H](O)CC(=O)[C@@H]1C/C=C\CCCC(=O)O` (stereo partly drawn) [11α,15-dihydroxy-16-methyl-9-oxo-5(cis)-13(trans)prostadienoic acid], in data set [1], the “Antiasthmatic effect, Aerosol, ED50” value is 0.009 µg/mL. In addition, in data set [2] (po), the ED50 was found to be 0.025 mg/kg. The b/a in data set [2] is 4.0. Also, in data set [3], the TD50 came to 0.1 mg/kg.
On to `COCCCCCC(O)/C=C/[C@H]1[C@H](O)CC(=O)[C@@H]1C/C=C\CCCC(=O)O` (stereo partly drawn) [20-methoxy-PGE2, 11α,15-dihydroxy-20-methoxy-9-oxo-5(cis)-13(trans)prostadienoic acid], for which, in data set [1], the “Antiasthmatic effect, Aerosol, ED50” value worked out at 0.15 µg/mL. Moreover, the ED50 in data set [2] (setting [5]) is above 0.8 mg/kg. For the same compound, in data set [2] (guinea-pigs, oral), the “antiasthmatic effect upon oral administration (in words)” value is “no antiasthmatic effect upon oral administration”.
Turning to `COCCCCC(C)C(O)/C=C/[C@H]1[C@H](O)CC(=O)[C@@H]1C/C=C\CCCC(=O)O` (stereo partly drawn) [Example 3, 11α,15-dihydroxy-20-methoxy-16-methyl-9-oxo-5(cis)-13(trans)prostadienoic acid], the “Antiasthmatic effect, Aerosol, ED50” value in data set [1] was 0.037 µg/mL. Further, the ED50 in data set [2] (po) was 0.0098 mg/kg; in data set [4], 0.0135 mg/kg. Also, the b/a in data set [2] amounted to 12.2. The TD50 in data set [3] was 0.12 mg/kg.
As to `CCCC[C@@H](C)C(O)/C=C/[C@H]1[C@H](O)CC(=O)[C@@H]1C/C=C\CCCC(=O)O` (stereo partly drawn) [11α,15-dihydroxy-16(R)-methyl-9-oxo-5(cis)-13(trans)prostadienoic acid], the “Antiasthmatic effect, Aerosol, ED50” value in data set [1] turned out to be 0.011 µg/mL. Besides, the ED50 in data set [2] (po) was 0.0175 mg/kg. The b/a in data set [2] came out at 1.43. The TD50 in data set [3] turned out to be 0.025 mg/kg.
On to `COCCCC[C@H](C)C(O)/C=C/[C@H]1[C@H](O)CC(=O)[C@@H]1C/C=C\CCCC(=O)O` (stereo partly drawn) [Example 6, 11α,15-dihydroxy-20-methoxy-16(S)-methyl-9-oxo-5(cis)-13(trans)prostadienoic acid], for which the 50% effective dose (ED50) in data set [2] (po) is 0.71 mg/kg. Further, in data set [2], the b/a was found to be 20.0. In addition, in data set [3], the TD50 came to 0.14 mg/kg.
With `CCCCC[C@H](O)/C=C/[C@H]1[C@H](O)CC(=O)[C@@H]1C/C=C\CCCC(=O)O` [Prostaglandin E2], the “Antiasthmatic effect, Aerosol, ED50” value in data set [1] came to 0.15 µg/mL. Moreover, the median effective dose (ED50) in data set [2] (setting [5]) was above 0.8 mg/kg; in data set [4] (guinea-pigs, intraduodenal, histamine 3 μg/kg i.v. 30 min later), above 0.8 mg/kg. The “antiasthmatic effect upon oral administration (in words)” value in data set [2] (guinea-pigs, oral) is given as “no antiasthmatic effect upon oral administration”.
As for `COCCCCC(C)C(O)/C=C/[C@H]1[C@H](O)CC(=O)[C@@H]1C/C=C\CCCC(=O)OC` (stereo partly drawn) [Example 7 ([α]D^25-66.4°), 11α,15-dihydroxy-20-methoxy-16-methyl-9-oxo-5(cis)-13(trans)prostadienoic acid methyl ester], in data set [2] (po), the ED50 is 0.0053 mg/kg. Besides, in data set [2], the b/a came to 9.62. Further, the TD50 in data set [3] stood at 0.051 mg/kg.
On to `COCCCC[C@H](C)C(O)/C=C/[C@H]1[C@H](O)CC(=O)[C@@H]1C/C=C\CCCC(=O)OC` (stereo partly drawn) [Example 7 ([α]D^25-58.0°), 11α,15-dihydroxy-20-methoxy-16(S)-methyl-9-oxo-5(cis)-13(trans)prostadienoic acid methyl ester], for which, in data set [2] (po), the 50% effective dose (ED50) was 0.016 mg/kg. Moreover, the b/a in data set [2] is listed as 9.06. The TD50 in data set [3] is 0.145 mg/kg.
